Test results reported in ChEMBL document CHEMBL2029229, “Structure-activity relationship of a series of non peptidic RGD integrin antagonists targeting α5β1: part 1” (Bioorg Med Chem Lett, 2012).

What was measured:
Integrin alpha-5/beta-1 [1] = biological target: T1, Integrin alpha-5/beta-1 (Homo sapiens, UniProt P05556+P08648); experiment: Antagonist activity at integrin alpha5beta1 in human K562 cells assessed as inhibition of cell adhesion; format: functional, cell-based
Integrin alpha-5/beta-1 [2] = biological target: T1, Integrin alpha-5/beta-1; experiment: Antagonist activity at integrin alpha5beta1 in human A375M cells assessed as inhibition of cell adhesion to fibronectin in presence of Mg2+ and MK-0429; format: functional, cell-based
A375M = experiment: Selectivity ratio of IC50 for integrin alphavbeta3alpha5beta1-mediated human A375M cells adhesion to fibronectin in absence of MK-0429 to IC50 for integrin alpha5beta1-mediated human A375M cells adhesion to fibronectin in presence of MK-0429; format: cell-based
[3] = biological target: Fibronectin receptor (Integrin alpha-5/beta-1 and alpha-V/beta-3) (Homo sapiens, UniProt P05106+P05556+P06756+P08648); experiment: Antagonist activity at integrin alphavbeta3alpha5beta1 in human A375M cells assessed as inhibition of cell adhesion to fibronectin in presence of Mg2+; format: functional, cell-based
Integrin alpha-V/beta-3 = Integrin alpha-V/beta-3 (Homo sapiens, UniProt P05106+P06756); experiment: Antagonist activity at integrin alphavbeta3 in human A375M cells assessed as inhibition of cell adhesion to fibrinogen in presence of Mg2+; format: functional, cell-based
Sequence of Integrin alpha-V/beta-3 (P05106 27-788 limits assumed): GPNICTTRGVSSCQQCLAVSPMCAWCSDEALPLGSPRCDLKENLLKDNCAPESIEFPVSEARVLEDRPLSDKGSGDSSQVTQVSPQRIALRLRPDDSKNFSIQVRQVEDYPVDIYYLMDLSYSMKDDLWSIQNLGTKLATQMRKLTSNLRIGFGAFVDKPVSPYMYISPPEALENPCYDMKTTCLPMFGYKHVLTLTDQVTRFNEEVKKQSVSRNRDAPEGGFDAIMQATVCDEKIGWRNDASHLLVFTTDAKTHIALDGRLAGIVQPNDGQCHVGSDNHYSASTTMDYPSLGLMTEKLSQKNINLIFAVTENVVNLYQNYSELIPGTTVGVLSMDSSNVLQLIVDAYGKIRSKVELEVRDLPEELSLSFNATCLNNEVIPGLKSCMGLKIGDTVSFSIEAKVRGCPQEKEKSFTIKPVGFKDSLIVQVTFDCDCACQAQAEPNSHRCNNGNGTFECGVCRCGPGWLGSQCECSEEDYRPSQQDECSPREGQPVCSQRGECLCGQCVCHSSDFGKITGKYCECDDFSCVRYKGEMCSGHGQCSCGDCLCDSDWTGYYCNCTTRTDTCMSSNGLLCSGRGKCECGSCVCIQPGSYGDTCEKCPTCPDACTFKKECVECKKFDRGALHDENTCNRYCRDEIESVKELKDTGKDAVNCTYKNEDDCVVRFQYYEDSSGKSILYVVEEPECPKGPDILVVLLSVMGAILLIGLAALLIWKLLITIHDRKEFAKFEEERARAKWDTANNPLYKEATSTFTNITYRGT
Sequence of Integrin alpha-V/beta-3 (P06756 31-889 limits assumed): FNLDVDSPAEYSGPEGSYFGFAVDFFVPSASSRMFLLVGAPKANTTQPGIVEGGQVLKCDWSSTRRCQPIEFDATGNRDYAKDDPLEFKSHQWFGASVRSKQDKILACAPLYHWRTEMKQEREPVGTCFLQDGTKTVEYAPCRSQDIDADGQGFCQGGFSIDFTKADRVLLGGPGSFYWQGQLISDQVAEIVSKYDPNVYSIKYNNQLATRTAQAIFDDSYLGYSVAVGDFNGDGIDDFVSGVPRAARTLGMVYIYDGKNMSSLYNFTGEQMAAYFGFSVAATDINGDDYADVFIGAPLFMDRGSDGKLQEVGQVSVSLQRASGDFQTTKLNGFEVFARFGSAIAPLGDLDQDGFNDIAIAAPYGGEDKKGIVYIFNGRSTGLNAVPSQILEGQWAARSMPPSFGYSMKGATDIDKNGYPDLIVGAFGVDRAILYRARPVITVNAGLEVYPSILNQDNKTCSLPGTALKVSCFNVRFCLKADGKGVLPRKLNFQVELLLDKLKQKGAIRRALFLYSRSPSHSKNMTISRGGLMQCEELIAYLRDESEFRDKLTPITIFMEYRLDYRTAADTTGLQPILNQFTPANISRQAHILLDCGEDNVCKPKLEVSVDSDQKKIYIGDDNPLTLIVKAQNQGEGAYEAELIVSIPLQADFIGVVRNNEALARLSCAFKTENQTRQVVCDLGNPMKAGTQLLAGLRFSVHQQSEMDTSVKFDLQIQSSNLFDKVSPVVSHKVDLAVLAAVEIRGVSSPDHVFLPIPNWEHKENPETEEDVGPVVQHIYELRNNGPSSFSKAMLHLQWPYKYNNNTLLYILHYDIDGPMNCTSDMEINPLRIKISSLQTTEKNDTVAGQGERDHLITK
Sequence of Integrin alpha-V/beta-3 (P06756 891-1048 limits assumed): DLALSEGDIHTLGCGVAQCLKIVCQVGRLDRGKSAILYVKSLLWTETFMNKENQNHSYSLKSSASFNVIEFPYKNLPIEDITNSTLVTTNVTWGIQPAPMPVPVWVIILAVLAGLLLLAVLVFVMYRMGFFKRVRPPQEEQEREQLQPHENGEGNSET

Integrin alpha-5/beta-1 [4] = biological target: T1, Integrin alpha-5/beta-1; experiment: Binding affinity to integrin alpha5beta1; format: protein-complex assay
[5] = biological target: Integrin alpha-IIb/beta-3 (Homo sapiens, UniProt P05106+P08514); experiment: Inhibition of integrin alpha2b beta3; format: protein-complex assay
Sequence of Integrin alpha-IIb/beta-3 (P05106 27-788 limits assumed): as the sequence (P05106 27-788 limits assumed) above
Sequence of Integrin alpha-IIb/beta-3 (P08514 32-887 limits assumed): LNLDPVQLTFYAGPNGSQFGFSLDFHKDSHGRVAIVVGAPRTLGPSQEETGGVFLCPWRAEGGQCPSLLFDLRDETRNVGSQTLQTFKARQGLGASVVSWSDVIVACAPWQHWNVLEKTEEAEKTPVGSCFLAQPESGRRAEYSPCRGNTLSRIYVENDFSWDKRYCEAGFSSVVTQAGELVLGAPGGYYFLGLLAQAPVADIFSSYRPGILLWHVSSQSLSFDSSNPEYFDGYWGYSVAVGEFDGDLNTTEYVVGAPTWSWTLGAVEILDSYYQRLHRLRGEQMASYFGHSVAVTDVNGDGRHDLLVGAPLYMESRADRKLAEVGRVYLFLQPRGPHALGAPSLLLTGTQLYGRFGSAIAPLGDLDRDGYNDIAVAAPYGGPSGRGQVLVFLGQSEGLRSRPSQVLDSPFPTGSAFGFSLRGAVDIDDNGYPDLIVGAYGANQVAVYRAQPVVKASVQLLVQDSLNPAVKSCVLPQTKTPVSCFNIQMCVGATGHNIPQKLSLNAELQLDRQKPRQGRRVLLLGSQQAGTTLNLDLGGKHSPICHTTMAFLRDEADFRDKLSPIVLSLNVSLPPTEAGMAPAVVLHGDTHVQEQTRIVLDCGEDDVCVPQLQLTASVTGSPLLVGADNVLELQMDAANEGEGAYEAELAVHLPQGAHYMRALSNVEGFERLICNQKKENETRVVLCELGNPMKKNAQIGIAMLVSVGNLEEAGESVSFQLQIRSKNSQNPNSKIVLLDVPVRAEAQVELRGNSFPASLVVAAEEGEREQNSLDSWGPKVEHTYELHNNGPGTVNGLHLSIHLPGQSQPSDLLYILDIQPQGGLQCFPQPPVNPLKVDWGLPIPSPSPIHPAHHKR
Sequence of Integrin alpha-IIb/beta-3 (P08514 891-1039 limits assumed): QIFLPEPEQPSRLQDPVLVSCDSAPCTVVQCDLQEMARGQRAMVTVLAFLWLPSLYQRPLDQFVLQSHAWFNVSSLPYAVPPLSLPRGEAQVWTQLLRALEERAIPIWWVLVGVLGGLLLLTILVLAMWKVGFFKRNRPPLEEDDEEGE

[6] = Fraction unbound in rat plasma; format: ADME, cell-free
[7] = Dissociation constant, pKa of the compound; format: physicochemical
Integrin alpha-5/beta-1 [8] = biological target: T1, Integrin alpha-5/beta-1; experiment: Antagonist activity at integrin alpha5beta1 in human K562 cells assessed as inhibition of cell adhesion in presence of 630 uM human serum albumin; format: functional, cell-based

T1 sequence (P05556 21-798 limits assumed): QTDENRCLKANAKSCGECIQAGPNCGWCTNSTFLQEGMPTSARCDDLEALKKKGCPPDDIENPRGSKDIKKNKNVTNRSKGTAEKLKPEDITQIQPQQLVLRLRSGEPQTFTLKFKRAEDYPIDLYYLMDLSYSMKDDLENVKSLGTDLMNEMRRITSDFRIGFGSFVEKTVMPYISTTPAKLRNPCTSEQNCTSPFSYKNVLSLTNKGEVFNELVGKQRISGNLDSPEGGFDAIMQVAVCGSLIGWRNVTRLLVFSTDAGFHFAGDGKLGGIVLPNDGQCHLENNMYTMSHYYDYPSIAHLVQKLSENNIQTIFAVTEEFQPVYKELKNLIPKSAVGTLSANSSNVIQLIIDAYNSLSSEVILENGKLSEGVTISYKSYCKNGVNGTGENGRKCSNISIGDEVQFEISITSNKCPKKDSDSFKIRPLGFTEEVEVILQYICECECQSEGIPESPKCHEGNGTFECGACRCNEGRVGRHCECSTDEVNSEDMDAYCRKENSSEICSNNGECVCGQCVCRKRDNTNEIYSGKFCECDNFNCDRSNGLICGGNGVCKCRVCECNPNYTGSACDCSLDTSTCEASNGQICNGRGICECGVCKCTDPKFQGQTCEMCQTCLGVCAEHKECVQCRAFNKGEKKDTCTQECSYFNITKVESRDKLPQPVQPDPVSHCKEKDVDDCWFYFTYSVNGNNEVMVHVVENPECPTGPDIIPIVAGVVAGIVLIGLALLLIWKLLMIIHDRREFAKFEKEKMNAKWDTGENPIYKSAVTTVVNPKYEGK
T1 sequence (P08648 42-894 limits assumed): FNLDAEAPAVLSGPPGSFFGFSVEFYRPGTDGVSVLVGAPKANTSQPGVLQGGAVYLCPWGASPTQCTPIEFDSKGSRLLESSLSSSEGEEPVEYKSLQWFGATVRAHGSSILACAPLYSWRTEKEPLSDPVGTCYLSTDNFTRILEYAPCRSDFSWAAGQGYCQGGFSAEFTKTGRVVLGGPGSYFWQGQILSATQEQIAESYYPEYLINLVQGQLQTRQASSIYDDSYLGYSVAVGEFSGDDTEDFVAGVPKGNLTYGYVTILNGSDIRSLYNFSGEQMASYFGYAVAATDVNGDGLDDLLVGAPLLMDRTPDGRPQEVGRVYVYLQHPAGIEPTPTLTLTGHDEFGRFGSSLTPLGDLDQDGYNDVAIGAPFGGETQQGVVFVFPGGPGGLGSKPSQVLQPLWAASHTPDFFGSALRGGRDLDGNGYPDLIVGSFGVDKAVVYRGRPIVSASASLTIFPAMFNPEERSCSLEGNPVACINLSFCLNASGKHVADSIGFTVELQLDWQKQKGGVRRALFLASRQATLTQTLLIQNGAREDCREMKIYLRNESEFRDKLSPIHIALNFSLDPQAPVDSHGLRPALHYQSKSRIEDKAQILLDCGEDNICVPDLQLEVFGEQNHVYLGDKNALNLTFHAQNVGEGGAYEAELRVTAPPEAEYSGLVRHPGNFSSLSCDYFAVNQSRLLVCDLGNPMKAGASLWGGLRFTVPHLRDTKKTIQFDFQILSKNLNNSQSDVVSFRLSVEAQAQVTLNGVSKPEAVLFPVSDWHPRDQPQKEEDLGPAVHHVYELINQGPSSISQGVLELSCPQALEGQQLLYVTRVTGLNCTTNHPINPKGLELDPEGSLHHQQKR
T1 sequence (P08648 895-1049 limits assumed): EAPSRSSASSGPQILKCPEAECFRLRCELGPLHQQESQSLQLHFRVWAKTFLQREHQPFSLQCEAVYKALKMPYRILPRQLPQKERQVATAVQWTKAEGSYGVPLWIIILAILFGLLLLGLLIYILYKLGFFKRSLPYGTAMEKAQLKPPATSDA

IC50 (Integrin alpha-5/beta-1 [1]) [nM] | IC50 (Integrin alpha-5/beta-1 [2]) [nM] | IC50 [3] [nM] | IC50 (Integrin alpha-V/beta-3) [nM] | IC50 (Integrin alpha-5/beta-1 [4]) [nM] | IC50 [5] [µM] | fraction unbound [6] | pKa [7] | IC50 (Integrin alpha-5/beta-1 [8]) [nM] | SMILES | Ratio IC50 (A375M)
586 | 200 | 3200 | 1200 |  |  |  |  |  | Cc1cc(C)c(C(=O)N[C@@H](CNC(=O)CO[C@@H]2C[C@@H](CNc3ccccn3)N(C(=O)OCc3ccccc3)C2)C(=O)O)c(C)c1 | 15
< 8 | 150 | 250 | 23 | 1 | > 10 | 0.015 | 7.1 | < 56 | CN1CCNc2nc(CCOc3ccc(C[C@H](NC(=O)c4c(Cl)cccc4Cl)C(=O)O)cc3)ccc21 | 1.6
2400 |  |  |  | 970 |  |  | 4.3 |  | O=C(N[C@@H](Cc1ccc(OCCNc2nc3ccccc3s2)cc1)C(=O)O)c1c(Cl)cccc1Cl | 
 |  |  |  |  |  |  | 6.7 |  | O=C(N[C@@H](Cc1ccc(OCCNc2ccccn2)cc1)C(=O)O)c1c(Cl)cccc1Cl | 
58000 |  |  |  | 360 |  |  |  |  | CN1CC(CCCOc2ccc(C[C@H](NC(=O)c3c(Cl)cccc3Cl)C(=O)O)cc2)C1 | 
2700 |  |  |  | 140 |  |  |  |  | CN(C)c1cccc(CCOc2ccc(C[C@H](NC(=O)c3c(Cl)cccc3Cl)C(=O)O)cc2)n1 | 
9 |  |  |  | < 1 |  |  |  |  | Nc1cccc(CCOc2ccc(C[C@H](NC(=O)c3c(Cl)cccc3Cl)C(=O)O)cc2)n1 | 
< 41 |  |  |  | 3 |  |  |  |  | O=C(N[C@@H](Cc1ccc(OCCc2cccc(NCC3CC3)n2)cc1)C(=O)O)c1c(Cl)cccc1Cl | 
120 | 1400 | 8400 | 350 | 5 |  |  | 6.8 |  | O=C(NCc1ccc2c(n1)NCCC2)c1ccc(C[C@H](NC(=O)c2c(Cl)cccc2Cl)C(=O)O)cc1 | 5.9
2100 |  |  |  | 69 |  |  | 6.7 |  | O=C(N[C@@H](Cc1ccc(C#CCCNc2ccccn2)cc1)C(=O)O)c1c(Cl)cccc1Cl | 
 |  |  | 84 |  |  |  | 7.1 |  | O=C(N[C@@H](Cc1ccc(OCCCNc2ccccn2)cc1)C(=O)O)c1c(Cl)cccc1Cl | 4
10000 |  |  |  | 150 |  |  |  |  | NC(=O)NCCCOc1ccc(C[C@H](NC(=O)c2c(Cl)cccc2Cl)C(=O)O)cc1 | 
1400 |  |  |  | 220 |  |  | 6.4 |  | CNc1cccc(COCc2ccc(C[C@H](NC(=O)c3c(Cl)cccc3Cl)C(=O)O)cc2)n1 | 
710 |  |  |  | 54 |  |  |  |  | O=C(N[C@@H](Cc1ccc(OCCCCNc2ccccn2)cc1)C(=O)O)c1c(Cl)cccc1Cl | 
1100 |  |  |  | 24 |  |  | 7.2 |  | O=C(N[C@@H](Cc1ccc(CCCCNc2ccccn2)cc1)C(=O)O)c1c(Cl)cccc1Cl | 
< 8 |  |  |  | < 1 | > 10 | 0.006 |  | 450 | O=C(N[C@@H](Cc1ccc(CCCc2ccc3c(n2)NCCC3)cc1)C(=O)O)c1c(Cl)cccc1Cl | 
 |  |  |  |  |  |  | 7.6 |  | CNc1cccc(CCCc2ccc(C[C@H](NC(=O)c3c(Cl)cccc3Cl)C(=O)O)cc2)n1 | 
160 |  |  |  | 8 |  |  | 7.2 |  | O=C(N[C@@H](Cc1ccc(OCCNc2nc3ccccc3[nH]2)cc1)C(=O)O)c1c(Cl)cccc1Cl | 
320 |  |  |  | 83 |  |  | 6.8 |  | O=C(N[C@@H](Cc1ccc(OCCc2cccc(NC3CCCC3)n2)cc1)C(=O)O)c1c(Cl)cccc1Cl | 
84 | 210 | 860 | 49 | 3 |  |  |  |  | O=C(Cc1ccc2c(n1)NCCC2)Nc1ccc(C[C@H](NC(=O)c2c(Cl)cccc2Cl)C(=O)O)cc1 | 4
< 3 |  | 9 | 1 | < 1 | > 10 | 0.007 | 7.6 | 29 | O=C(N[C@@H](Cc1ccc(OCCc2ccc3c(n2)NCCC3)cc1)C(=O)O)c1c(Cl)cccc1Cl | 4.5
 |  |  | 7 |  |  |  | 7 |  | CNc1cccc(CCOc2ccc(C[C@H](NC(=O)c3c(Cl)cccc3Cl)C(=O)O)cc2)n1 | 2.4
10 | 130 | 270 | 17 | 1 |  |  | 6 |  | O=C(N[C@@H](Cc1ccc(OCCc2ccc3c(n2)NCCO3)cc1)C(=O)O)c1c(Cl)cccc1Cl | 2.1
